The record followed here is publication PMC8213057, “Targeting ALK2: An Open Science Approach to Developing Therapeutics for the Treatment of Diffuse Intrinsic Pontine Glioma” (Journal of Medicinal Chemistry, 2020).

One assay addresses T1, EPHB4 (Homo sapiens, UniProt P54760).
T1 sequence (P54760 16-987): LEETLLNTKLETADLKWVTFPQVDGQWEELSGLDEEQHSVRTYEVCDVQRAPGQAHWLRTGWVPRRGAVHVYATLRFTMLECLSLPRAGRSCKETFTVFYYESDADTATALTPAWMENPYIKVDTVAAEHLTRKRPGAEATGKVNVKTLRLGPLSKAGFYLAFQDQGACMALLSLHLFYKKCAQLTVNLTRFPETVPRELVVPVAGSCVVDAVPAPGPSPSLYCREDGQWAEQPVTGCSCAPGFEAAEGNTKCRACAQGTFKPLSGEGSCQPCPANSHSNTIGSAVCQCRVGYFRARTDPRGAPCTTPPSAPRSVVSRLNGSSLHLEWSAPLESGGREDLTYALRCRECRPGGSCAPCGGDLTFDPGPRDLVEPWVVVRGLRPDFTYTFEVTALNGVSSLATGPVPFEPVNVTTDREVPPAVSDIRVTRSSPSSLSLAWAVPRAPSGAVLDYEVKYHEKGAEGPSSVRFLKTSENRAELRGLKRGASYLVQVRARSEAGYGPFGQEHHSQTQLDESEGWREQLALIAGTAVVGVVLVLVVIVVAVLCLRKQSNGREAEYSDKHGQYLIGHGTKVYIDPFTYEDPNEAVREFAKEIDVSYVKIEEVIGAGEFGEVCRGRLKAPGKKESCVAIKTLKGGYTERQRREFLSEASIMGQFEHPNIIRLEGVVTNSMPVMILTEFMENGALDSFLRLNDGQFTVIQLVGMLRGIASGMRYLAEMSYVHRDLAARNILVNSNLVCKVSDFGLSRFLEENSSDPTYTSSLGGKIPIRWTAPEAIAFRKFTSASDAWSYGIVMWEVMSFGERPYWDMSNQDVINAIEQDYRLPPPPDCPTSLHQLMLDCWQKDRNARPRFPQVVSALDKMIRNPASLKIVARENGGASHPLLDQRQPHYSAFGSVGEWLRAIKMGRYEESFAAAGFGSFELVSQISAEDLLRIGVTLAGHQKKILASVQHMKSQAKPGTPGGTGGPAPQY
The conditions noted are these: 1 μM; Run 1, Run 2.

In a further assay the target is KDR/VEGFR2 (Homo sapiens, UniProt P35968). The conditions noted are these: 1 μM; Run 1, Run 2.
A further assay has as its target T2, BMX/ETK (Homo sapiens, UniProt P51813).
T2 sequence (P51813 1-675): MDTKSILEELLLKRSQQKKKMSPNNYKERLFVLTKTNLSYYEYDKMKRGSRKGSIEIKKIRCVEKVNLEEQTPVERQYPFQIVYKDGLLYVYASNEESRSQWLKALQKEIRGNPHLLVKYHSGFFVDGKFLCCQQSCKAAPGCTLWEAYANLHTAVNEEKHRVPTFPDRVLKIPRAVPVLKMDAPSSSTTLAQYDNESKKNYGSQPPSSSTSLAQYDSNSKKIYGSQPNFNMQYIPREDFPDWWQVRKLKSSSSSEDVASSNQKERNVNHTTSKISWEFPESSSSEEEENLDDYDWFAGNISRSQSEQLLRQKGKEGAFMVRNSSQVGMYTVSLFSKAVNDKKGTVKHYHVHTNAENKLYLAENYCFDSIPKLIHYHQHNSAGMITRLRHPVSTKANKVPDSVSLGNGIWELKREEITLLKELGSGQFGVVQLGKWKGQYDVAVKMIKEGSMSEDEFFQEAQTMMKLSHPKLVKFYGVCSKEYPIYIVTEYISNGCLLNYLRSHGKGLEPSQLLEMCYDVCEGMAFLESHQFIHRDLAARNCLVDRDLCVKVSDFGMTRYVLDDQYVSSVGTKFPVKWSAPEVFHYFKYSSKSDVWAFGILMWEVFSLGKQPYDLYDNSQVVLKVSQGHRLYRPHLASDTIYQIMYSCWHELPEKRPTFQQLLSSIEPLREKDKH
In words: biochemical. Particulars: read-out: % enzyme activity, 1 μM; Run 1, Run 2.

For a further assay, the target named is CDK4/cyclin D3 (Homo sapiens, UniProt P11802). In words: biochemical. The conditions noted are these: read-out: % enzyme activity, 1 μM; Run 1, Run 2.
The target of another assay is GSK3a (Homo sapiens, UniProt P49840). In words: biochemical. The conditions noted are these: read-out: % enzyme activity, 1 μM; Run 1, Run 2.
For the next assay, the target named is T3, LATS2 (Homo sapiens, UniProt Q9NRM7).
T3 sequence (Q9NRM7 1-1088): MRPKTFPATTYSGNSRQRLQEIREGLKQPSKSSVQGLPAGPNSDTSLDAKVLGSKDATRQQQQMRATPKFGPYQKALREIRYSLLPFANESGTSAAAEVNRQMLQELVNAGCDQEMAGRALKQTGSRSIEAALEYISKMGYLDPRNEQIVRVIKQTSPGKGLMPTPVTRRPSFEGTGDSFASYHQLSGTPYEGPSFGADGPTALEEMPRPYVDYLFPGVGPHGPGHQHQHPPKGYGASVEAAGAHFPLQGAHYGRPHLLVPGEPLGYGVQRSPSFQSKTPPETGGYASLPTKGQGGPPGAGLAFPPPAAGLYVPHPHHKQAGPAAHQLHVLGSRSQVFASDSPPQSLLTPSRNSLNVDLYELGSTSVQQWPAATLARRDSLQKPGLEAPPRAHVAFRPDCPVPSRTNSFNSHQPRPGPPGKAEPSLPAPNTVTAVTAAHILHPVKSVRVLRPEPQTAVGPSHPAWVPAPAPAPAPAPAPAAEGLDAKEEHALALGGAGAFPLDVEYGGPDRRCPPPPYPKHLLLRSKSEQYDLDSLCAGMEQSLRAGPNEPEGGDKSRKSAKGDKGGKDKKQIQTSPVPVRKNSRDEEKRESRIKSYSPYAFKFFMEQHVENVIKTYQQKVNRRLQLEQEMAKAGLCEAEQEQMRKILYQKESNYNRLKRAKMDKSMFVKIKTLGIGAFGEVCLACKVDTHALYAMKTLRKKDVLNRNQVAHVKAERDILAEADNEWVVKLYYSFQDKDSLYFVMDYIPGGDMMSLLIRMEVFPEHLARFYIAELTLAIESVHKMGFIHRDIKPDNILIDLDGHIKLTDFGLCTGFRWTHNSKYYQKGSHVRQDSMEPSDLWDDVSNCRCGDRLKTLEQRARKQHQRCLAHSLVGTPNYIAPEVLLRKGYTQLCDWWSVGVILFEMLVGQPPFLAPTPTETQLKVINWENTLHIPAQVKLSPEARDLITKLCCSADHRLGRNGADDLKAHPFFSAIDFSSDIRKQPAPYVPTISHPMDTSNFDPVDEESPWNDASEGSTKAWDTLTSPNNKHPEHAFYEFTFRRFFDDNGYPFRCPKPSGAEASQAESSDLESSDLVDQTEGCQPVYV
In words: biochemical. The conditions noted are these: read-out: % enzyme activity, 1 μM; Run 1, Run 2.

The target of another assay is PKCb2 (Homo sapiens, UniProt P05771). In words: biochemical. The conditions noted are these: read-out: % enzyme activity, 1 μM; Run 1, Run 2.
Sequence of PKCb2 (P05771 1-673 isoform P05771-2): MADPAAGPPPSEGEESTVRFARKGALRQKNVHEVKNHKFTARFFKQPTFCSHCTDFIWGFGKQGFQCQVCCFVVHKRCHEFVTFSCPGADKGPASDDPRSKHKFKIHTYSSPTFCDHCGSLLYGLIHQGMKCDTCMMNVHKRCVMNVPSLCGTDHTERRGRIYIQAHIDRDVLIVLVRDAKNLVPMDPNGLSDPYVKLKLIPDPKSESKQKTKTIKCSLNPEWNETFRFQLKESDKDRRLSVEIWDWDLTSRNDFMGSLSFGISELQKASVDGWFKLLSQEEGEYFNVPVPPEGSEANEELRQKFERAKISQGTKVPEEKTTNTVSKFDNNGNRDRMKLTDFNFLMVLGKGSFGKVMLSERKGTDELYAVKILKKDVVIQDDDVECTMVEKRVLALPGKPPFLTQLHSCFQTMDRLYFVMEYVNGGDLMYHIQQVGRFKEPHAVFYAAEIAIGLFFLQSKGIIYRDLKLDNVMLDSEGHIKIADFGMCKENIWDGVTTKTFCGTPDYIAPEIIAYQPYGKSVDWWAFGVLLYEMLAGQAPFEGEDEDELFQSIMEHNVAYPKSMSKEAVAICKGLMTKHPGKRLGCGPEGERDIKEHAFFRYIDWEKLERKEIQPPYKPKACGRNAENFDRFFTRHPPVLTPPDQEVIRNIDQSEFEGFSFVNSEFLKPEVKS

Sequence of KDR/VEGFR2 (P35968 20-1356): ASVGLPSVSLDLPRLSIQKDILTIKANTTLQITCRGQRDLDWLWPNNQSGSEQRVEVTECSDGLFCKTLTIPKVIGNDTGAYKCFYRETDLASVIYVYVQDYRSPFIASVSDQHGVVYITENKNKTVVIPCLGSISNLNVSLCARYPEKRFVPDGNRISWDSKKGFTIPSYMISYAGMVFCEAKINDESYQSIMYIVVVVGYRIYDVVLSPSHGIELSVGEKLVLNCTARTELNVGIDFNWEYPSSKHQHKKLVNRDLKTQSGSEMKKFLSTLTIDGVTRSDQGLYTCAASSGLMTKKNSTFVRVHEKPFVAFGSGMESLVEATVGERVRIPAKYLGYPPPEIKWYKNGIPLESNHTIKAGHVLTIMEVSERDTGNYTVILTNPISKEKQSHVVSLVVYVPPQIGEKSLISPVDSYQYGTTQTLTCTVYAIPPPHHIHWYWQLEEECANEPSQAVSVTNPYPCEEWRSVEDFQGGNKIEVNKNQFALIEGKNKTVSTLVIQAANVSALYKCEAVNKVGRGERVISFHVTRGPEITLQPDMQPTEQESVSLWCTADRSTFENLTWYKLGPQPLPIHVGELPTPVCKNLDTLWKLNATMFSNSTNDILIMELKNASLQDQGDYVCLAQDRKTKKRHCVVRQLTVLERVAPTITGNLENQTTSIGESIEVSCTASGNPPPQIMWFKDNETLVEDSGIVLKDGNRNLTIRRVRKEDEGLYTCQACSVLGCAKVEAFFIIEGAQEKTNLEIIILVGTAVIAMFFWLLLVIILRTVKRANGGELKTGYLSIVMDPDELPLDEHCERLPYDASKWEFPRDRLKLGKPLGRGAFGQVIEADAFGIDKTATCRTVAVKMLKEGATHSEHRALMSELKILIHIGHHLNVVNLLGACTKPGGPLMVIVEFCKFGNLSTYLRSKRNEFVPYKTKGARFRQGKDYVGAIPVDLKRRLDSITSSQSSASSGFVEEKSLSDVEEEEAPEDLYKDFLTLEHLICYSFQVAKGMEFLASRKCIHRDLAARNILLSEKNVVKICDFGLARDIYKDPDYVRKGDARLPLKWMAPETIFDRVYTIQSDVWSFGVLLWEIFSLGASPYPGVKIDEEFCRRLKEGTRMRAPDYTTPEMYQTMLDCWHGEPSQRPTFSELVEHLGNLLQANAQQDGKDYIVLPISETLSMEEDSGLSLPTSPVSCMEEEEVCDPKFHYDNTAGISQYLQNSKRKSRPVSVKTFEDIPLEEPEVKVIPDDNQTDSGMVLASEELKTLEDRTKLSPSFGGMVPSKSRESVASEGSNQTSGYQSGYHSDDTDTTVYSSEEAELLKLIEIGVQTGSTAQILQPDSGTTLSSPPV
Sequence of GSK3a (P49840 whole entry): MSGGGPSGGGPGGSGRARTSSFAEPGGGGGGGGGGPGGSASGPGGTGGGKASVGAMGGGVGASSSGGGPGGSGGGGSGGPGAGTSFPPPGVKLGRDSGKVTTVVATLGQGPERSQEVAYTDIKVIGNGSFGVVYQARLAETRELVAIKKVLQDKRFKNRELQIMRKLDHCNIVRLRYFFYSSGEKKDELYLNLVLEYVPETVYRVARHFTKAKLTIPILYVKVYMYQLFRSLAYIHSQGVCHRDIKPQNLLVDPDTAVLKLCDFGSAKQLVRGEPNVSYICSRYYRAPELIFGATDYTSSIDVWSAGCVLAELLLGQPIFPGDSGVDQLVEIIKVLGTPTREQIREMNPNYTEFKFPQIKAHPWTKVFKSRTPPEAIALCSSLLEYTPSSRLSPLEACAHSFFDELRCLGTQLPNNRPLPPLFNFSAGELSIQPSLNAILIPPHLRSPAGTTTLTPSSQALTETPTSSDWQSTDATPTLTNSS
Sequence of CDK4/cyclin D3 (P11802 whole entry): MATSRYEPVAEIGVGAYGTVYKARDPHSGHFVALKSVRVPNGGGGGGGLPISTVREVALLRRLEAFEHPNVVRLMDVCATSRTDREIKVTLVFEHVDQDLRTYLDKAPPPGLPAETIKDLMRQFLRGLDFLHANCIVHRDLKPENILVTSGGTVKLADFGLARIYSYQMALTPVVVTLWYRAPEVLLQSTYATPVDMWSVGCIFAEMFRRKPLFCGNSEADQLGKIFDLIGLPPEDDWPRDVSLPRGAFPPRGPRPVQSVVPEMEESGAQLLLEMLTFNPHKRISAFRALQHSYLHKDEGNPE
Sequence of CDK4/cyclin D3 (P30281 whole entry partner): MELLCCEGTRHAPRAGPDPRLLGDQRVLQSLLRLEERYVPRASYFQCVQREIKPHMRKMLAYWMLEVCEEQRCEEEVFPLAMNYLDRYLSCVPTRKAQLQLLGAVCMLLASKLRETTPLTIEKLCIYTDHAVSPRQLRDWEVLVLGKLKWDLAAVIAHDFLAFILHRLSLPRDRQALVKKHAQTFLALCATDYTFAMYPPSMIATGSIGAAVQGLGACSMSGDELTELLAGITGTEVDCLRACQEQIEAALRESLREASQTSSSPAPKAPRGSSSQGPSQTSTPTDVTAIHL

Turning to `COc1cc(-c2cncc(-c3ccc(N4CCN(C)CC4)cc3)c2C)cc(F)c1C(N)=O` [Compound 26a, 2-Fluoro-6-methoxy-4-(4-methyl-5-(4-(4-methylpiperazin-1-yl)phenyl)pyridin-3-yl)benzamide], the “% enzyme activity” value at EPHB4 was determined as 93.42%; on KDR/VEGFR2, 92.99%. The remaining activity at 1 µM at BMX/ETK is 103%; at CDK4/cyclin D3, 101%; on GSK3a, 102%; at LATS2, 106%; at PKCb2 it was 107%.
For `COc1cc(-c2cncc(-c3ccc(N4C[C@@H](C)N(C)[C@@H](C)C4)cc3)c2C)cc(F)c1C(N)=O` [Compound 26c, 2-Fluoro-6-methoxy-4-(4-methyl-5-(4-((3R,5S)-3,4,5-trimethylpiperazin-1-yl)phenyl)pyridin-3-yl)benzamide], the “% enzyme activity” value on EPHB4 came to 91.07%; at KDR/VEGFR2, 85.59%. The remaining activity at 1 µM on BMX/ETK was found to be 102%; on CDK4/cyclin D3, 96%; at GSK3a, 102%; at LATS2, 102%; on PKCb2, 99.1%.
